In a melting point compilation (Tetko et al.; mined from patent text by program, amines drawn as free bases though some values may be those of a salt):

With `CCC(=O)c1cc2c(s1)CCCN(CCCCCl)C2=O` the melting point was 91 to 92 °C. Work on `ON=CCc1ccc(F)cc1` yielded a melting point of 113 to 115 °C. In the case of `CCCCCCCCCCCCCCCCCCOS(=O)(=O)NC(=O)Nc1c(C(C)C)cccc1C(C)C`, the melting point was 95 to 98 °C. Work on `CCC(OCC(F)(F)F)c1ccc(Cl)c2nc3n(c12)CCCN3c1ccc(N(C)C)nc1C` (stereo not given) yielded a melting point of 144 to 146 °C. `CC(=O)Nc1cccc2c1C(=O)c1c-2n[nH]c1-c1ccc(C(F)(F)F)cc1` gave a melting point greater than 300 °C. `CCOC(=O)COc1ccc2c(c1)CCCC2=O` gave a melting point of 39 to 41 °C. With `Cn1ncc(/C=C/C(=O)Nc2ccc(Cc3n[nH]c(=O)o3)cc2)c1-c1ccc(F)cc1` the melting point was 262 to 263 °C. Work on `Cc1cc(Sc2ccccc2)ccc1N` yielded a melting point of 64 to 65 °C. For `CN(CC(=O)OC(C)(C)C)Cc1ccc(CCn2cnc3cc(-c4ccc(Cl)cc4)sc3c2=O)cc1`, the melting point was 130 °C. Work on `CCC(O)=C1C(=O)OC(C)(C)OC1=O` yielded a melting point of 43 to 46 °C. Work on `CN1CCC(c2c(O)cc(O)c3c(=O)cc(-c4ccccc4Cl)oc23)C1CC#N` (stereo not given) yielded a melting point of 107 to 108 °C. With `O=[N+]([O-])c1ccc(CNc2ccccn2)cc1` the melting point was 131 to 132 °C. `CNC(=O)C(=NO)c1ccccc1C` showed a melting point of 160 to 161 °C. `CC(C)[C@H](NC(=O)N(C)Cc1cccnc1)C(=O)N[C@@H](Cc1ccccc1)[C@H](O)[C@@H](O)[C@H](Cc1ccccc1)NC(=O)[C@@H](NC(=O)N(C)Cc1ccccn1)C(C)C` showed a melting point of 92 to 94 °C. Compound `CC(C)Cn1c(CN2C(=O)c3ccccc3C2=O)c(-c2ccc(F)cc2)c2cc(OCc3ccccc3)ccc2c1=O` has a melting point of 198 to 199 °C. Compound `C=CCc1c(N2C(=O)C3=C(CCCC3)C2=O)ccc(C)c1O` has a melting point of 141 to 143 °C. With `N#Cc1ccc(-c2ccc(O)c(C(F)(F)F)c2)cc1` the melting point was 201 to 203 °C. `O=C(O)c1ccc(N2C(=O)c3cccc([N+](=O)[O-])c3C2=O)cc1` showed a melting point greater than 300 °C. In the case of `Cc1sc(-c2cccc(F)c2)nc1O`, the melting point was 162 to 163 °C. In the case of `O=C(O)C(=Cc1ccco1)SSC(=Cc1ccco1)C(=O)O`, the melting point was 215 °C. In the case of `O=C(O)COc1ccc(SCc2ccc(OCc3ccc(Cl)cc3Cl)cc2)c2c1CCC2`, the melting point was 149 to 150 °C. For `CCOC(=O)c1n[nH]cc1-c1ccccc1`, the melting point was 164 to 165 °C. For `COc1cc(C(=O)N(C(C)C)C2CCCCC2)ccc1Cn1cccc2nc(-c3cccnc3)nc1-2`, the melting point was 185 to 188 °C. Compound `O=C1Nc2ccccc2C(=O)N2CC[C@@H]12` has a melting point of 217 to 218 °C. Compound `CC(O)CCCCc1ccc(-c2ccccc2)cc1` (stereo not given) has a melting point of 71 to 72 °C. In the case of `CCCOc1ccccc1C1=NC(=O)C2=NC=NC2=N1`, the melting point was 254 to 259 °C. In the case of `N#CCc1ccc(CNC(=O)C2Cc3ccccc3N2S(=O)(=O)c2ccc(-c3cccc(C(F)(F)F)c3)cc2)cc1` (stereo not given), the melting point was 75 to 80 °C. For `CCOC(=O)C=Cc1ccc(OCCCCOCc2ccccc2)nc1NC(=O)C(C)(C)C`, the melting point was 75 to 76 °C. `Cc1cccc(NC(c2ccccc2O)c2ccc3cccnc3c2O)n1` (stereo not given) showed a melting point of 189 to 191 °C. `CC(C)(C)OC(=O)N[C@H]1CCN(c2nc3c(cc2F)c(=O)[nH]c(=O)n3C2CC2)C1` gave a melting point of 220 to 222 °C. Work on `O=C(C[C@@H](CCCC1CCCCC1)c1nc(CNC2CCCC2)co1)NO` yielded a melting point of 124 to 127 °C. With `CCOC(=O)C(=CNc1ccccc1[N+](=O)[O-])C(=O)OCC` the melting point was 104 to 105 °C. Compound `CC1c2cccc3c2N(CC3)c2ccccc2N1CC#N` (stereo not given) has a melting point of 148 to 150 °C. For `c1ccc(CN2CCN(Cc3ccccc3)C(CCc3ccncc3)C2)cc1` (stereo not given), the melting point was 96 to 98 °C. With `COc1cccc(C=C2N=C(c3ccc([N+](=O)[O-])cc3)OC2=O)c1OC` the melting point was 203 to 208 °C. `COc1cnn(C)c(=O)c1Cl` gave a melting point of 189 to 191 °C. `Cc1[nH]cnc1Cn1nnnc1-c1cccc(Cl)c1Cl` gave a melting point of 151 to 153 °C. Work on `CNC(=O)C(C(=O)NC(Cc1ccccc1)C(O)CNCC(O)C(Cc1ccccc1)NC(=O)OC(C)(C)C)C(C)(C)C` (stereo not given) yielded a melting point of 117 to 120 °C. `O=c1c(-c2ccc(F)cc2)coc2cc(O)c(O)cc12` showed a melting point of 296 °C. Compound `O=C(O)Cc1ccc(C#CC#Cc2ccc(CC(=O)O)cc2)cc1` has a melting point of 91 °C. `COC(=O)c1cc(Cl)ccc1N(C(C)C)S(=O)(=O)c1ccc(C)cc1` gave a melting point of 114 to 116 °C. With `COc1cc(Nc2c(C#N)cnc3c(-c4ccc(CN(C)C)cc4)csc23)c(Cl)cc1Cl` the melting point was 201 to 202 °C. For `CC(=NNC(=O)OC1CC(C)CCC1C(C)C)c1ccncc1` (stereo not given), the melting point was 188 °C. `CCC12CCC3C4CCC(=O)C=C4CCC3C1CCC2OC(O)C(Cl)(Cl)Cl` (stereo not given) gave a melting point of 175 to 176 °C. `Cn1nc(-c2ccccc2)nc1-c1ccncc1` gave a melting point of 132 to 134 °C. With `Cc1cc(NCc2ccccc2)nc(-n2nc(C)cc2C)n1` the melting point was 136 to 137 °C. For `N#Cc1cc(O)c(O)c(C#N)c1CCCCC(=O)O`, the melting point was 210 to 215 °C. Work on `O=C1Nc2ccccc2N(C(=O)CN2CCCCC2CN2CCCCC2)c2ccccc21` (stereo not given) yielded a melting point of 220 to 221 °C. Compound `CCc1nc(OC)c(NC(=O)N2CCN(c3cc(Cl)cc(Cl)c3)CC2)cc1C(=O)Nc1cc(CO)cc(Nc2c3ccccc3nc3ccccc23)c1` has a melting point of 210 to 212 °C. `Cc1ccc(C(=O)OCCOc2ccc(OC(F)(F)F)cc2)cc1` showed a melting point of 76 to 77.5 °C. `O=C(CCCCCCC(=O)c1ccc(O)cc1)c1ccc(O)cc1` showed a melting point of 196 to 198 °C. In the case of `CN1Cc2c(S(=O)(=O)Cl)cc3[nH]c(=O)c(=O)[nH]c3c2C1`, the melting point was greater than 300 °C. For `CCNc1nc(Cc2ccc(OC)c(OC)c2)nc2sc(C#N)c(C)c12`, the melting point was 125 to 126 °C. Work on `CCOc1ccc2[nH]c(C)cc2c1O` yielded a melting point of 77 to 78 °C. For `COc1c(C=NO)ccc(Cl)c1Cl`, the melting point was 82 to 83 °C. With `Cn1cc2c(n1)Nc1ccc(F)cc1N=C2N1CCN(CC2CC2)CC1` the melting point was 188 to 189 °C. Work on `c1cc(N=C2SCC3Cc4sccc4CN23)c2ccncc2c1` (racemic) yielded a melting point of 198 °C. In the case of `CN1CC(c2ccc(OC(F)(F)F)cc2)(c2ccc(F)c(-c3cccnc3F)c2)N=C1N` (stereo not given), the melting point was 65 to 70 °C. With `CCc1nc2ncnc(-c3c(C)cc(C)cc3C)c2[nH]1` the melting point was 215 to 217 °C. `COC(=O)CNC(=O)c1ccc(C(=O)NS(=O)(=O)c2ccc(CCNC(=O)CC3CCCCC3)cc2)cn1` showed a melting point of 178 to 179 °C. `CN(CCCCC(=O)O)c1ccc([N+](=O)[O-])cc1C=O` gave a melting point of 107 to 108 °C. `CCn1c(=O)c2c(nc(/C=C/c3cccc(OC(C)=O)c3)n2C)n(CC)c1=O` showed a melting point of 206 to 207 °C. Work on `Cc1cccc(C)c1NC(=O)Nc1sc2ccc(Cl)cc2c1-c1ccccc1Cl` yielded a melting point of 203 to 204 °C. `C=C(C)c1ccc(O)c(-n2nc3ccccc3n2)c1` showed a melting point of 124 °C. Compound `C=CCc1c(OC(C)=O)c2cccnc2n(-c2ccccc2)c1=O` has a melting point of 189 to 195 °C. Compound `Cc1ccc(S(=O)(=O)OCC2COc3cc(F)c([N+](=O)[O-])cc3O2)cc1` (stereo not given) has a melting point of 106 to 107 °C. Compound `CC1(C)c2ccccc2C(C)(C)C1(S)CC#N` has a melting point of 113 to 114 °C. With `Cc1c(C=C2CCc3cc4ccccc4n3C2=O)ncn1C(c1ccccc1)(c1ccccc1)c1ccccc1` the melting point was 214 to 217 °C. With `CCC(C)c1nn(-c2ccc(C(F)(F)F)cn2)cc1CO` (stereo not given) the melting point was 76 to 77 °C. In the case of `Cc1ccc(C(=O)Nc2c(NC(=O)CN3CCOCC3)ccc3c2C(=O)c2ccccc2C3=O)cc1`, the melting point was 225 to 226 °C. `O=C(C1CC1)C(C(O)C(Cl)(Cl)Cl)n1cncn1` (stereo not given) gave a melting point of 173 to 175 °C. Work on `CC(=O)N1C(C(=O)NCCO[N+](=O)[O-])CSC1c1ccccc1` (stereo not given) yielded a melting point of 103 to 105 °C. Compound `Cc1oc(Cl)cc1C(=O)O` has a melting point of 126 to 127 °C. `c1ccc(COc2ccc(CN(c3ccccc3)c3ccccc3)cc2)cc1` gave a melting point of 104 to 109 °C. Compound `CCOC(=O)c1c(C(F)(F)F)nc(C(F)F)c(C(=O)OC)c1N1CC1` has a melting point of 92 to 95 °C. `O=C(O)C(F)Oc1ccc(Cl)cc1Cl` (stereo not given) gave a melting point of 89 to 91 °C. `CCC(=O)OCC1(COC(=O)CC)c2ccccc2-c2ccccc21` showed a melting point of 82 to 83 °C. Work on `COC(=O)c1ccc(C#CCO)cc1` yielded a melting point of 81 to 82 °C. `OCC1OC(n2c(Cl)nc3cc(Br)c(Cl)cc32)C(O)C1O` (stereo not given) gave a melting point of 140 to 142 °C. In the case of `Cc1cc2c(cc1CSCC(=O)O)OCO2`, the melting point was 90 to 92 °C. `CC(C)(C)c1cc(SC[Si](C)(C)C)cc(C(C)(C)C)c1O` gave a melting point of 100 to 101 °C. Compound `CCC1CC(=O)N(Cc2ccc(NS(C)(=O)=O)cc2)N=C1c1ccc(OC)c(OC)c1` (stereo not given) has a melting point of 81 °C. `CC(C)c1cccc(C(C)C)c1NS(=O)(=O)CC(=O)NCC(c1ccccc1)C1CCCC1` (stereo not given) showed a melting point of 168 to 170 °C. For `CCCN(CCC)C1Cc2cccc3[nH]c(=O)n(c23)C1` (stereo not given), the melting point was 190 to 192 °C. `COc1cc(N)c([N+](=O)[O-])c(OC(F)F)c1OC` gave a melting point of 141 to 142 °C. In the case of `CN(C(=O)OC(C)(C)C)c1cnc(-c2ccc(Cl)nc2)s1`, the melting point was 167 to 170 °C. Compound `CC(C)(C)OC(=O)NC(C(=O)O)c1ccc(O)cc1` (stereo not given) has a melting point of 112 to 114 °C. In the case of `CCCCCCCCCCCCCCC1(C(=O)OC)CO1` (stereo not given), the melting point was 47 to 48 °C. `CCCN(CCC)C(=O)Cc1ccccc1Nc1c(Cl)cccc1Cl` showed a melting point of 84 to 86 °C. For `NCCNc1n[nH]c2ncnc(Nc3cccc(Cl)c3)c12`, the melting point was 200 °C. Compound `COc1cc2sc(C#N)cc2cc1OC(F)F` has a melting point of 99 to 101 °C. For `CN(C)C(=O)c1cc(=O)c2ccsc2s1`, the melting point was 126 °C. For `Cc1ccc(S(=O)(=O)NC(=S)NC23CC4CC(CC(C4)C2)C3)cc1`, the melting point was 170 to 173 °C. Work on `CCOC(=O)c1nc2scc(COCc3ccccc3)c2c(=O)[nH]1` yielded a melting point of 155 to 156 °C. `COc1cccc2c(Cc3nc(-c4ccccc4)co3)coc12` showed a melting point of 101 to 103 °C. With `Cc1c(NC(=O)CC(C)(C)C)c(C)c2c(c1-c1ccc[nH]1)OCC2c1ccc(C(C)C)cc1` (stereo not given) the melting point was 188 to 190 °C. `Cc1noc(C)c1Cn1cc(N2C(=O)N(Cc3cc(O[Si](C)(C)C(C)(C)C)cc(O[Si](C)(C)C(C)(C)C)c3)C(C)(C)C2=O)cn1` showed a melting point of 213 to 215 °C. `CC(=O)N1CCC(C2=C(C#N)C(c3cccc4nonc34)c3c[nH]nc3N2)CC1` (stereo not given) showed a melting point of 248 °C. `Cc1cc(CO)cc(Cl)n1` showed a melting point of 112 to 113 °C. Work on `C=COCCOc1ccc(C2(c3ccc(OCCOC=C)cc3)CCC(c3ccc(OCCOC=C)cc3)(c3ccc(OCCOC=C)cc3)CC2)cc1` yielded a melting point of 138 to 139 °C.
